Experiments:
[1] = biological target: T1, hTRPM8 (Homo sapiens, UniProt Q7Z2W7); assay: Assay on TRPM8 modulators: calcium imaging (Fluo-4, Flexstation) in HEK293 cell line stably expressing hTRPM8; type: cell-based; conditions: HEK293 cells stably expressing hTRPM8; calcium influx, Fluo-4, Flexstation 3; sigmoidal dose-response fit
T1 construct: expressed in transfected cells
In short: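 HEK293 cells stably expressing hTRPM8 were loaded with Fluo-4 AM plus probenecid and kept in HEPES buffer, pH 7.4. Calcium influx to serially diluted compounds was recorded for 120 s. Maximal activation was referenced to solvent control and 31.6 μM menthol, with EC values from sigmoidal dose-response fits.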

[2] = test system: trained group of panelists; assay: Sensory studies in aqueous solution (trained panel, mouth swill); type: in vivo, human; conditions: 10 ppm in aqueous solution; for Time of max. cooling / Max. cooling: 20 mL swilled in the mouth for 60 seconds; for Max. cooling / Cooling after 1 h: panel-averaged cooling score, scale 0 to 10; for Cooling after 1 h: 1 h after swilling
Protocol: The compounds as listed below in Table 2 were dissolved at a concentration of 1 wt-% in propylene glycol. These solutions were then dispensed in appropriate quantities into deionized water containing 0.5 wt-% Poloxamer 407 (which is a hydrophilic non-ionic surfactant, e.g., commercially available from SigmaAldrich) and 0.25 wt-% Cremaphor® RH40 (obtained from BASF) as solubilizer, to obtain the desired final concentration of 10 ppm (parts per million) of the respective compound.
A trained group of panelists evaluated the aqueous solutions containing test compound by swilling 20 mL of the solution in the mouth for 60 seconds, followed by spitting, without rinsing the mouth afterwards for the duration of the evaluation. Panelists evaluated and recorded the cooling performance as well as other sensorial and organoleptic attributes at different timepoints over a period of two hours. Cooling performance was rated on a scale from 0 to 10 with 0 being no effect and 10 being freezing. Scores were averaged for all panelists and the cooling intensity qualified as “none” (score of 0), “low” (score above 0, up to 1), “medium” (score above 1, up to 4) “strong” (score above 4, up to 8) and “freezing” (score above 8), which are provided in Table 2.

[3] = test system: trained group of panelists; assay: Sensory studies in model dentifrice (trained panel, tooth brushing); type: in vivo, human; conditions: 40 ppm in model unflavored dentifrice; for Cooling after 1 h: 1 h after brushing; for Cooling after 1 h / Max. cooling: panel-averaged score 0 to 10; for Time of max. cooling / Max. cooling: brushing with 1 g for 60 seconds; for Max. cooling: stock in propylene glycol (A) or benzyl alcohol (B)
Protocol: The compounds listed in Table 3 were dissolved at a concentration of 1 wt-% in propylene glycol^A or benzyl alcohol^B (respective solvents indicated in Table 3). These solutions were then dispersed in appropriate quantities to obtain the desired final concentration of 40 ppm (parts per million) of the test compound into a model, unflavored dentifrice, the formula of which is given below (ingredients obtained from the suppliers respectively indicated in parenthesis).
A trained group of panelists evaluated the dentifrice containing a compound of formula (I), by brushing their teeth with 1 g of the dentifrice using a toothbrush for 60 seconds, followed by spitting, without rinsing the mouth afterwards for the duration of the evaluation. Panelists evaluated and recorded the cooling performance as well as other sensorial and organoleptic attributes at different timepoints over a period of two hours. Cooling performance was rated on a scale from 0 to 10 with 0 being no effect and 10 being freezing. Scores were averaged for all panelists and the cooling intensity qualified as “none” (score of 0), “low” (score above 0, up to 1), “medium” (score above 1, up to 4) “strong” (score above 4, up to 8) and “freezing” (score above 8), which are summarized below in Table 3.

T1 sequence (Q7Z2W7 whole entry): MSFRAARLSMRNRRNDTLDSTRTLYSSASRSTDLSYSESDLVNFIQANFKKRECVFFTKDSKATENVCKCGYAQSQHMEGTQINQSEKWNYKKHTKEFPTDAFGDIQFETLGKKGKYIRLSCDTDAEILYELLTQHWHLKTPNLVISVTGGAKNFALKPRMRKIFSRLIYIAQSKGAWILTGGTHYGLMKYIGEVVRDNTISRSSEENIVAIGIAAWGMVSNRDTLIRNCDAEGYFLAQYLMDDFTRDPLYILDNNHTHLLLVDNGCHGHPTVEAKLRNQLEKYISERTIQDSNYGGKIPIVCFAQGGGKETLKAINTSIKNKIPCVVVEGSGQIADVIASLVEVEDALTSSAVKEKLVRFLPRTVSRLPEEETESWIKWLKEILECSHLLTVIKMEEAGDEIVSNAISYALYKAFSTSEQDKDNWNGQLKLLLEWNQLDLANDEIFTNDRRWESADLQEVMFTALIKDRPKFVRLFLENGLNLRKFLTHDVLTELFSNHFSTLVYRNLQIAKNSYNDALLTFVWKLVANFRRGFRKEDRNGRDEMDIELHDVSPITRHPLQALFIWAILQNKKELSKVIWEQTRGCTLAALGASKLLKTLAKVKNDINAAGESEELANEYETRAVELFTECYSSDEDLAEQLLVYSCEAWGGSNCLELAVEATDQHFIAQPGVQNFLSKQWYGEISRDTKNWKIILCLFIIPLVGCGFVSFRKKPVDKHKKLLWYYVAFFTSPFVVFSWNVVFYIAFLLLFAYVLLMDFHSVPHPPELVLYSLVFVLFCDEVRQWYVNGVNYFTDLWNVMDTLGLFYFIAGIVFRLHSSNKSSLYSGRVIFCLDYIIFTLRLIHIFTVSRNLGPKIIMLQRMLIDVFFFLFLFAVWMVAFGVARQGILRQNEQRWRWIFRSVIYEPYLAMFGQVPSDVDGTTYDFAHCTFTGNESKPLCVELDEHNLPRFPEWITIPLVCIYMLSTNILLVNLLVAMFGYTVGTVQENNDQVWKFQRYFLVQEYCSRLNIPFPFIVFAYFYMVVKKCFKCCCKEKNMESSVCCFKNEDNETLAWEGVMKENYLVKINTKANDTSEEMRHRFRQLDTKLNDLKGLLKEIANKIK

Row | Structure (SMILES) | EC50 [1] [µM] | Time of max. cooling [2] [min] | Max. cooling [2] | Cooling after 1 h [2] | Cooling after 1 h [3] | Time of max. cooling [3] [min] | Max. cooling [3]
1 | CSC(C)C(=O)N1CCCCC1c1ncc(-c2ccc(C)cc2)[nH]1 (stereo not shown) [Compound 130, 2-(methylthio)-1-(2-(5-(p-toly)-1H-imidazol-2-yl)piperidin-1-yl)propan-1-one] | < 0.05 | 20 | S (S = Strong) | M (M = medium) | M (M = medium) | 20 | S (S = Strong)
2 | C=CC(C)C(=O)N1CCCCC1c1ncc(-c2ccc(C)cc2)[nH]1 (stereo not shown) [Compound 163, 2-methyl-1-(2-(5-(p-tolyl)-1H-imidazol-2-yl)piperidin-1-yl)but-3-en-1-one] | < 0.05 | 10 | S (S = Strong) | M (M = medium) | M (M = medium) | 5 | M (M = medium)
3 | CCC(C)C(=O)N1CCCCC1c1ncc(-c2ccc(C)cc2)[nH]1 (stereo not shown) [Compound 164, 2-methyl-1-(2-(5-(p-tolyl)-1H-imidazol-2-yl)piperidin-1-yl)butan-1-one] | < 0.05 | 10 | S (S = Strong) | M (M = medium) | M (M = medium) | 10 | S (S = Strong)
4 | CC[C@H](C)C(=O)N1CCCCC1c1ncc(-c2ccc(C)cc2)[nH]1 (stereo partly drawn) [Compound 166, (2S)-2-methyl-1-(2-(5-(p-tolyl)-1H-imidazol-2-yl)piperidin-1-yl)butan-1-one] | < 0.05 | 20 | S (S = Strong) | M (M = medium) | M (M = medium) | 10 | S (S = Strong)

Reference: patent US12528801B2 (Givaudan SA, priority 2019, dated 2026)
